According to patent US11028090B2 (Dong Wha Pharm. Co., Ltd., priority 2017, dated 2021):
Like-named read-outs stand apart in the source and are kept apart here.

Legend:
[1] = target: BRD4 (BD1+BD2) bromodomain (Homo sapiens (Human), UniProt O60885); assay: BRD4 binding inhibition (AlphaScreen, GST-BRD4 vs tetraacetylated histone H4 peptide)
Summary of the method: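 GST-BRD4 (BD1+BD2) and biotinylated tetraacetyl-histone H4 peptide, each at 100 nM in HEPES pH 7.4 buffer with BSA and DTT, were combined with compound. Glutathione acceptor and streptavidin donor beads were added, then incubated 30 min at room temperature in the dark. Read-out was AlphaScreen signal.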

[2] = tested on: acute myelogenous leukemia cells (MV-4-11 cells); assay: Cytotoxicity to acute myelogenous leukemia cells (MV-4-11 cells), CCK-8; conditions: Homo sapiens, MV4-11, 72 h
[3] = GST-BRD4 (BD1+BD2) vs biotinylated acetyl-histone H4 peptide, AlphaScreen, read-out: BRD4 IC50
[4] = read-out: MV-4-11 Cytotoxicity IC50
[5] = GST-BRD4 (BD1+BD2) / biotinylated acetyl-histone H4 (Lys5,8,12,16) peptide, read-out: IC50, BRD4 binding inhibition
[6] = read-out: IC50, cytotoxicity against acute myelogenous leukemia cells

| IC50 [1, 3] [nM] | IC50 [1, 5] [nM] | Structure (SMILES) | IC50 [2, 4] [nM] | IC50 [2, 6] [nM] |
| --- | --- | --- | --- | --- |
| 64 | – | COc1cccc2c1nc(NCCCCNC(=O)OC(C)(C)C)c1nnc(C)n12 [Example 117, [4-(6-methoxy-1-methyl-[1,2,4]triazolo[4,3-a]quinoxaline-4-ylamino)-butyl]-carbamic acid-tert-butylester] | 370 | – |
| 33 | ≤ 50 | COc1ccc2nc(NCCCCNC(=O)c3ccccc3Cl)c3nnc(C)n3c2c1 [Example 128, 2-chloro-N-[4-(8-methoxy-1-methyl-[1,2,4]triazolo[4,3-a]quinoxaline-4-ylamino)-butyl]-benzamide] | 170 | ≤ 200 |
| 6 | ≤ 10 | COc1c(C)ccc2c1nc(NCCCCNC(=O)[C@@H](O)C(C)C)c1nnc(C)n12 [Example 137, 2-(S)-hydroxy-N-[4-(6-methoxy-1,7-dimethyl-[1,2,4]triazolo[4,3-a]quinoxaline-4-ylamino)-butyl]-3-methyl-butyramide] | 370 | – |
| 51 | – | COc1c(C)ccc2c1nc(NCCCCNC(=O)c1ccccc1)c1nnc(C)n12 [Example 138, N-[4-(6-methoxy-1,7-dimethyl-[1,2,4]triazolo[4,3-a]quinoxaline-4-ylamino)-butyl]-benzamide] | 860 | – |
| 52 | – | COc1c(C)ccc2c1nc(NCCCCNC(=O)c1ccccc1Cl)c1nnc(C)n12 [Example 140, 2-chloro-N-[4-(6-methoxy-1,7-dimethyl-[1,2,4]triazolo[4,3-a]quinoxaline-4-ylamino)-butyl]-benzamide] | 680 | – |
| 48 | ≤ 50 | COc1cc2c(cc1C)nc(NCCCCNC(=O)OCC(C)C)c1nnc(C)n12 [Example 150, [4-(8-methoxy-1,7-dimethyl-[1,2,4]triazolo[4,3-a]quinoxaline-4-ylamino)-butyl]-carbamic acid isobutylester] | 460 | – |
| 52 | – | COc1cc2c(cc1C)nc(NCCCCNC(=O)CC(C)C)c1nnc(C)n12 [Example 151, N-[4-(8-methoxy-1,7-dimethyl-[1,2,4]triazolo[4,3-a]quinoxaline-4-ylamino)-butyl]-3-methyl-butyramide] | 380 | – |
| 16 | ≤ 50 | COc1cc2c(cc1C)nc(NCCCCNC(=O)[C@@H](O)C(C)C)c1nnc(C)n12 [Example 153, 2-(S)-hydroxy-N-[4-(8-methoxy-1,7-dimethyl-[1,2,4]triazolo[4,3-a]quinoxaline-4-ylamino)-butyl]-3-methyl-butyramide] | 460 | – |
| 18 | ≤ 50 | COc1cc(C)c2nc(NCCCCNC(=O)OC(C)(C)C)c3nnc(C)n3c2c1 [Example 158, [4-(8-methoxy-1,6-dimethyl-[1,2,4]triazolo[4,3-a]quinoxaline-4-ylamino)-butyl]-carbamic acid-tert-butylester] | 610 | – |
| 24 | ≤ 50 | COc1cc(C)c2nc(NCCCCN)c3nnc(C)n3c2c1 [Example 159, N^1-(8-methoxy-1,6-dimethyl-[1,2,4]triazolo[4,3-a]quinoxaline-4-yl)-butane-1,4-diamine ditrifluoroacetic acid] | 530 | – |
| 28 | ≤ 50 | COc1cc(C)c2nc(NCCCCNC(=O)CC(C)C)c3nnc(C)n3c2c1 [Example 160, N-[4-(8-methoxy-1,6-dimethyl-[1,2,4]triazolo[4,3-a]quinoxaline-4-ylamino)-butyl]-3-methyl-butyramide] | 70 | ≤ 200 |
| 24 | ≤ 50 | COCCOc1cc2nc(NCCCCNC(=O)OC(C)(C)C)c3nnc(C)n3c2cc1OCCOC [Example 162, {4-[7,8-bis-(2-methoxy-ethoxy)-1-methyl-[1,2,4]triazolo[4,3-a]quinoxaline-4-ylamino]-butyl}-carbamic acid-tert-butylester] | 640 | – |
| 37 | ≤ 50 | COCCOc1cc2nc(NCCCCNC(=O)C(C)(C)C)c3nnc(C)n3c2cc1OCCOC [Example 164, N-{4-[7,8-bis-(2-methoxy-ethoxy)-1-methyl-[1,2,4]triazolo[4,3-a]quinoxaline-4-ylamino]-butyl}-2,2-dimethyl-propionamide] | 570 | – |
| 41 | ≤ 50 | COCCOc1cc2nc(NCCCCNC(=O)NC(C)(C)C)c3nnc(C)n3c2cc1OCCOC [Example 169, 1-{4-[7,8-bis-(2-methoxy-ethoxy)-1-methyl-[1,2,4]triazolo[4,3-a]quinoxaline-4-ylamino]-butyl}-3-tert-butyl-urea] | 860 | – |
| 38 | ≤ 50 | COCCOc1cc2nc(NCCCCNC(=O)c3ccccc3)c3nnc(C)n3c2cc1OCCOC [Example 170, N-{4-[7,8-bis-(2-methoxy-ethoxy)-1-methyl-[1,2,4]triazolo[4,3-a]quinoxaline-4-ylamino]-butyl}-benzamide] | 530 | – |
| 40 | ≤ 50 | COCCOc1cc2nc(NCCCCNC(=O)c3ccc(C)nc3Cl)c3nnc(C)n3c2cc1OCCOC [Example 172, N-{4-[7,8-bis-(2-methoxy-ethoxy)-1-methyl-[1,2,4]triazolo[4,3-a]quinoxaline-4-ylamino]-butyl}-2-chloro-6-methyl-nicotinamide] | 280 | – |
| 4 | ≤ 10 | CCOc1cc2nc(NCCCCNC(=O)OC(C)(C)C)c3nnc(C)n3c2cc1OCC [Example 173] | 360 | – |
| 26 | ≤ 50 | CCOc1cc2nc(NCCCCNC(=O)OC(C)C)c3nnc(C)n3c2cc1OCC [Example 175, [4-(7,8-diethoxy-1-methyl-[1,2,4]triazolo[4,3-a]quinoxaline-4-ylamino)-butyl]-carbamic acid isopropylester] | 260 | – |
| 2 | ≤ 10 | CCOc1cc2nc(NCCCCNC(=O)OCC(C)C)c3nnc(C)n3c2cc1OCC [Example 176, [4-(7,8-diethoxy-1-methyl-[1,2,4]triazolo[4,3-a]quinoxaline-4-ylamino)-butyl]-carbamic acid isobutylester] | 110 | ≤ 200 |
| 50 | ≤ 50 | CCOc1cc2nc(NCCCCNC(=O)CC(C)C)c3nnc(C)n3c2cc1OCC [Example 177] | 110 | ≤ 200 |
| 17 | ≤ 50 | Cc1nnc2c(NCCCCNC(=O)OC(C)(C)C)nc3cc4c(cc3n12)OCCO4 [Example 178, [4-(1-methyl-8,9-dihydro-7,10-dioxa-2,3,5,11b-tetraaza-cyclopenta[a]anthracene-4-ylamino)-butyl]-carbamic acid-tert-butylester] | 440 | – |
| 35 | ≤ 50 | Cc1nnc2c(NCCCCN)nc3cc4c(cc3n12)OCCO4 [Example 179, N^1-(1-methyl-8,9-dihydro-7,10-dioxa-2,3,5,11b-tetraaza-cyclopenta[a]anthracene-4-yl)-butane-1,4-diamine ditrifluoroacetic acid] | 640 | – |
| 17 | ≤ 50 | Cc1nnc2c(NCCCCNC(=O)C(C)(C)C)nc3cc4c(cc3n12)OCCO4 [Example 180, 2,2-dimethyl-N-[4-(1-methyl-8,9-dihydro-7,10-dioxa-2,3,5,11b-tetraaza-cyclopenta[a]anthracene-4-ylamino)-butyl]-propionamide] | 190 | ≤ 200 |
| 11 | ≤ 50 | Cc1nnc2c(NCCCCNC(=O)[C@@H](O)C(C)C)nc3cc4c(cc3n12)OCCO4 [Example 183, 2-(S)-hydroxy-3-methyl-N-[4-(1-methyl-8,9-dihydro-7,10-dioxa-2,3,5,11b-tetraaza-cyclopenta[a]anthracene-4-ylamino)-butyl]-butyramide] | 250 | – |
| 19 | ≤ 50 | Cc1nnc2c(NCCCCNC(=O)Cc3cccs3)nc3cc4c(cc3n12)OCCO4 [Example 185, N-[4-(1-methyl-8,9-dihydro-7,10-dioxa-2,3,5,11b-tetraaza-cyclopenta[a]anthracene-4-ylamino)-butyl]-2-thiophene-2-yl-acetamide] | 20 | ≤ 200 |
| 24 | ≤ 50 | Cc1nnc2c(NCCCCNC(=O)c3ccccc3Cl)nc3cc4c(cc3n12)OCCO4 [Example 187, 2-chloro-N-[4-(1-methyl-8,9-dihydro-7,10-dioxa-2,3,5,11b-tetraaza-cyclopenta[a]anthracene-4-ylamino)-butyl]-benzamide] | 110 | ≤ 200 |
| 25 | ≤ 50 | Cc1nnc2c(NCCCCNC(=O)OC(C)C)nc3cc4c(cc3n12)OCCO4 [Example 188, [4-(1-methyl-8,9-dihydro-7,10-dioxa-2,3,5,11b-tetraaza-cyclopenta[a]anthracene-4-ylamino)-butyl]-carbamic acid isopropylester] | 170 | ≤ 200 |
| 17 | ≤ 50 | Cc1nnc2c(NCCCCNC(=O)OCC(C)C)nc3cc4c(cc3n12)OCCO4 [Example 189, [4-(1-methyl-8,9-dihydro-7,10-dioxa-2,3,5,11b-tetraaza-cyclopenta[a]anthracene-4-ylamino)-butyl]-carbamic acid isobutylester] | 110 | ≤ 200 |
